From US20240109900A1, “AZABICYCLIC SHP2 INHIBITORS” (IRBM S.P.A., priority 2021, published 2024) come the findings set out here.

Assay [1] deals with SHP-2 enzyme (Met1-Leu525) (Homo sapiens (Human), UniProt Q06124). Put plainly: SHP2 inhibition enzymatic assay. It is filed as biochemical. The conditions noted are these: 0.5 nM SHP-2 activated by 500 nM IRS1 peptide, 75 μM DiFMUP substrate; read-out: SHP2wt-IC50. The method, boiled down:
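Compounds were preincubated 30 min with 0.5 nM SHP-2 (Met1-Leu525) plus 500 nM IRS1 activating peptide (pH 7.2 HEPES, 5 mM DTT), then 75 μM DiFMUP substrate reacted 30 min at room temperature. After bpV quench, DiFMUP fluorescence gave % inhibition; four-parameter logistic fit yielded IC50.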

In assay [2] the test system is ERK phosphorylation in KYSE-520 cells. Kind of assay: Phospho-ERK cellular assay. The assay is classed as cell-based. The settings on record: Homo sapiens, KYSE-520, 2 h, KYSE-520 cells, 2 h at 37° C., phospho-ERK1/2 (Thr202/Tyr204) TR-FRET; read-out: PERK IC50. The method, boiled down:
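TR-FRET read-out of ERK1/2 Thr202/Tyr204 phosphorylation was taken after overnight antibody incubation at room temperature. Before that, KYSE-520 cells were treated 2 h at 37 °C with compound dilutions and lysed 30 min. Percent inhibition relative to vehicle and cell-free wells was fitted four-parametrically to give IC50.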

SHP-2 enzyme (Met1-Leu525), sequence (Q06124 1-525): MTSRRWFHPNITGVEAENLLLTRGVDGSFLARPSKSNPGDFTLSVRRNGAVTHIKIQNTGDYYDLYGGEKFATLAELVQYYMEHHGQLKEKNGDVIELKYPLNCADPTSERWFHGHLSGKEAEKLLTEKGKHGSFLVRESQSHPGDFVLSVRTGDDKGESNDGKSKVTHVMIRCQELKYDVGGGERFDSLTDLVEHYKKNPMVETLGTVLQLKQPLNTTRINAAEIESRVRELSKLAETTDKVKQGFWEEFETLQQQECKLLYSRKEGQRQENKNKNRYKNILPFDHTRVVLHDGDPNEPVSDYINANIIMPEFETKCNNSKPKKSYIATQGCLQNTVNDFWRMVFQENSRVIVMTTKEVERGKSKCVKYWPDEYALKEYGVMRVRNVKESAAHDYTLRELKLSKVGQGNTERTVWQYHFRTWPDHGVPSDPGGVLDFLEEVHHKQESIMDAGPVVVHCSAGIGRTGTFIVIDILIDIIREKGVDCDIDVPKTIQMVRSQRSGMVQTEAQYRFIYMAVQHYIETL

`Cc1cc([C@@]2(CN)[C@@H]3CCN(c4cnc5c(-c6cnc7cc(C(F)(F)F)ccc7c6)n[nH]c5n4)C[C@@H]32)no1` [Example 152, ((1S,6R,7S)-7-(5-methylisoxazol-3-yl)-3-(3-(7-(trifluoromethyl)quinolin-3-yl)-1H-pyrazolo[3,4-b]pyrazin-6-yl)-3-azabicyclo[4.1.0]heptan-7-yl)methanamine]: the IC50 was below 500 nM in assay [1] and below 1000 nM in assay [2].
`NC[C@]1(c2ccccc2F)[C@@H]2CCN(c3cnc4c(-c5nccc6ncccc56)n[nH]c4n3)C[C@@H]21` [Example 153, ((1S,6R,7R)-3-(3-(1,6-naphthyridin-5-yl)-1H-pyrazolo[3,4-b]pyrazin-6-yl)-7-(2-fluorophenyl)-3-azabicyclo[4.1.0]heptan-7-yl)methanamine]: the 50% inhibitory concentration (IC50) in assay [1] was below 500 nM; in assay [2], below 1000 nM.
For `NC[C@]1(c2ccccc2F)[C@@H]2CCN(c3cnc4c(-c5ccnc6c5CCO6)n[nH]c4n3)C[C@@H]21` [Example 154, ((1S,6R,7R)-3-(3-(2,3-dihydrofuro[2,3-b]pyridin-4-yl)-1H-pyrazolo[3,4-b]pyrazin-6-yl)-7-(2-fluorophenyl)-3-azabicyclo[4.1.0]heptan-7-yl)methanamine] the same measures were below 500 nM and below 1000 nM.
For the compound `NC[C@]1(c2ccccc2F)[C@@H]2CCN(c3cnc4c(-c5ccnc6cnccc56)n[nH]c4n3)C[C@@H]21` [Example 155, ((1S,6R,7R)-3-(3-(1,7-naphthyridin-4-yl)-1H-pyrazolo[3,4-b]pyrazin-6-yl)-7-(2-fluorophenyl)-3-azabicyclo[4.1.0]heptan-7-yl)methanamine], the results for the 50% inhibitory concentration (IC50) in assay [1] and in assay [2] were below 500 nM and below 1000 nM, respectively.
Taken in the same sequence, the figures for `Cc1cc([C@@]2(CN)[C@@H]3CCN(c4cnc5c(-c6ccc(F)c7ncccc67)c[nH]c5n4)C[C@@H]32)no1` [Example 156, ((1S,6R,7S)-3-(7-(8-fluoroquinolin-5-yl)-5H-pyrrolo[2,3-b]pyrazin-3-yl)-7-(5-methylisoxazol-3-yl)-3-azabicyclo[4.1.0]heptan-7-yl)methanamine] were below 500 nM and below 1000 nM.
For `Cc1c(-c2c[nH]c3nc(N4CC[C@@H]5[C@H](C4)[C@@]5(CN)c4ccccc4F)cnc23)ccc2nn(C)cc12` [Example 157, ((1S,6R,7R)-3-(7-(2,4-dimethyl-2H-indazol-5-yl)-5H-pyrrolo[2,3-b]pyrazin-3-yl)-7-(2-fluorophenyl)-3-azabicyclo[4.1.0]heptan-7-yl)methanamine] the same measures were below 500 nM and below 1000 nM.
For `NC[C@]1(c2ccccc2F)[C@@H]2CCN(c3cnc4c(-c5cccc(-c6cnccn6)c5Cl)n[nH]c4n3)C[C@@H]21` [Example 158, ((1S,6R,7R)-3-(3-(2-chloro-3-(pyrazin-2-yl)phenyl)-1H-pyrazolo[3,4-b]pyrazin-6-yl)-7-(2-fluorophenyl)-3-azabicyclo[4.1.0]heptan-7-yl)methanamine] the same measures were below 500 nM and below 1000 nM.
Consider `NC[C@]1(c2ccccc2F)[C@@H]2CCN(c3cnc4c(-c5ccc(CO)c6ncccc56)n[nH]c4n3)C[C@@H]21` [Example 159, (5-(6-((1S,6R,7R)-7-(aminomethyl)-7-(2-fluorophenyl)-3-azabicyclo[4.1.0]heptan-3-yl)-1H-pyrazolo[3,4-b]pyrazin-3-yl)quinolin-8-yl)methanol], for which the IC50 in assay [1] is below 500 nM; in assay [2] it was below 1000 nM.
Turning to `NC[C@]1(c2ccccc2F)[C@@H]2CCN(c3cnc4c(-c5ccc(OC(F)F)c6ncccc56)n[nH]c4n3)C[C@@H]21` [Example 160, ((1S,6R,7R)-3-(3-(8-(difluoromethoxy)quinolin-5-yl)-1H-pyrazolo[3,4-b]pyrazin-6-yl)-7-(2-fluorophenyl)-3-azabicyclo[4.1.0]heptan-7-yl)methanamine], the values for the IC50 in assay [1] and in assay [2] were below 500 nM and below 1000 nM, respectively.
For `Cc1ccc(-c2n[nH]c3nc(N4CC[C@@H]5[C@H](C4)[C@@]5(CN)c4ccccc4F)cnc23)c2ccnn12` [Example 161, ((1S,6R,7R)-7-(2-fluorophenyl)-3-(3-(7-methylpyrazolo[1,5-a]pyridin-4-yl)-1H-pyrazolo[3,4-b]pyrazin-6-yl)-3-azabicyclo[4.1.0]heptan-7-yl)methanamine] the same measures were below 500 nM and below 1000 nM.
For `NC[C@]1(c2ccccc2F)[C@@H]2CCN(c3cnc4c(-c5cccc(Br)c5Cl)n[nH]c4n3)C[C@@H]21` [Example 162, ((1S,6R,7R)-3-(3-(3-bromo-2-chlorophenyl)-1H-pyrazolo[3,4-b]pyrazin-6-yl)-7-(2-fluorophenyl)-3-azabicyclo[4.1.0]heptan-7-yl)methanamine] the same measures were below 500 nM and below 1000 nM.
For the compound `NC[C@]1(c2ccccc2F)[C@@H]2CCN(c3cnc4c(-c5ccnc(N)n5)n[nH]c4n3)C[C@@H]21` [Example 163, 4-(6-((1S,6R,7R)-7-(aminomethyl)-7-(2-fluorophenyl)-3-azabicyclo[4.1.0]heptan-3-yl)-1H-pyrazolo[3,4-b]pyrazin-3-yl)pyrimidin-2-amine], the IC50 was below 500 nM in assay [1] and below 1000 nM in assay [2].
Regarding `CCOc1ccc(-c2n[nH]c3nc(N4CC[C@@H]5[C@H](C4)[C@@]5(CN)c4ccccc4F)cnc23)c2cccnc12` [Example 164, ((1S,6R,7R)-3-(3-(8-ethoxyquinolin-5-yl)-1H-pyrazolo[3,4-b]pyrazin-6-yl)-7-(2-fluorophenyl)-3-azabicyclo[4.1.0]heptan-7-yl)methanamine], the IC50 in assay [1] is below 500 nM; in assay [2] it was below 1000 nM.
Take `COC(C)c1ccc(-c2n[nH]c3nc(N4CC[C@@H]5[C@H](C4)[C@@]5(CN)c4ccccc4F)cnc23)c2cccnc12` (stereo partly drawn) [Example 165, ((1S,6R,7R)-7-(2-fluorophenyl)-3-(3-(8-(1-methoxyethyl)quinolin-5-yl)-1H-pyrazolo[3,4-b]pyrazin-6-yl)-3-azabicyclo[4.1.0]heptan-7-yl)methanamine]: the half-maximal inhibitory concentration (IC50) in assay [1] is below 500 nM; in assay [2] it was below 1000 nM.
For `COc1cccc2c(-c3n[nH]c4nc(N5CC[C@@H]6[C@H](C5)[C@@]6(CN)c5ccccc5F)cnc34)ccnc12` [Example 166, ((1S,6R,7R)-7-(2-fluorophenyl)-3-(3-(8-methoxyquinolin-4-yl)-1H-pyrazolo[3,4-b]pyrazin-6-yl)-3-azabicyclo[4.1.0]heptan-7-yl)methanamine] the same measures were below 500 nM and below 1000 nM.
`NC[C@]1(c2ccccc2F)[C@@H]2CCN(c3cnc4c(-c5ccc6nccnc6c5Cl)n[nH]c4n3)C[C@@H]21` [Example 167, ((1S,6R,7R)-3-(3-(5-chloroquinoxalin-6-yl)-1H-pyrazolo[3,4-b]pyrazin-6-yl)-7-(2-fluorophenyl)-3-azabicyclo[4.1.0]heptan-7-yl)methanamine]: the half-maximal inhibitory concentration (IC50) in assay [1] is below 500 nM; in assay [2], below 1000 nM.
Taken in the same sequence, the figures for `NC[C@]1(c2ccccc2F)[C@@H]2CCN(c3cnc4c(-c5cccc(-c6ncco6)c5Cl)n[nH]c4n3)C[C@@H]21` [Example 168, ((1S,6R,7R)-3-(3-(2-chloro-3-(oxazol-2-yl)phenyl)-1H-pyrazolo[3,4-b]pyrazin-6-yl)-7-(2-fluorophenyl)-3-azabicyclo[4.1.0]heptan-7-yl)methanamine] were below 500 nM and below 1000 nM.
Taken in the same sequence, the figures for `NC[C@]1(c2ccccc2F)[C@@H]2CCN(c3cnc4c(N5CCCc6ncccc65)n[nH]c4n3)C[C@@H]21` [Example 169, ((1S,6R,7R)-3-(3-(3,4-dihydro-1,5-naphthyridin-1(2H)-yl)-1H-pyrazolo[3,4-b]pyrazin-6-yl)-7-(2-fluorophenyl)-3-azabicyclo[4.1.0]heptan-7-yl)methanamine] were below 500 nM and below 1000 nM.
As for `NC[C@]1(c2ccccc2F)[C@@H]2CCN(c3cnc4c(-c5ccnc(-c6ncco6)c5Cl)n[nH]c4n3)C[C@@H]21` [Example 170, ((1S,6R,7R)-3-(3-(3-chloro-2-(oxazol-2-yl)pyridin-4-yl)-1H-pyrazolo[3,4-b]pyrazin-6-yl)-7-(2-fluorophenyl)-3-azabicyclo[4.1.0]heptan-7-yl)methanamine], the values for the half-maximal inhibitory concentration (IC50) in assay [1] and in assay [2] were below 500 nM and below 1000 nM, respectively.
As to `Cc1cc2ncccc2cc1-c1n[nH]c2nc(N3CC[C@@H]4[C@H](C3)[C@@]4(CN)c3ccccc3F)cnc12` [Example 171, ((1S,6R,7R)-7-(2-fluorophenyl)-3-(3-(7-methylquinolin-6-yl)-1H-pyrazolo[3,4-b]pyrazin-6-yl)-3-azabicyclo[4.1.0]heptan-7-yl)methanamine], the IC50 is below 500 nM in assay [1] and below 1000 nM in assay [2].
As for `Cc1c(-c2n[nH]c3nc(N4CC[C@@H]5[C@H](C4)[C@@]5(CN)c4ccccc4F)cnc23)ccc2ncccc12` [Example 172, ((1S,6R,7R)-7-(2-fluorophenyl)-3-(3-(5-methylquinolin-6-yl)-1H-pyrazolo[3,4-b]pyrazin-6-yl)-3-azabicyclo[4.1.0]heptan-7-yl)methanamine], the IC50 in assay [1] was below 500 nM; in assay [2], below 1000 nM.
For `Cc1cc(-c2n[nH]c3nc(N4CC[C@@H]5[C@H](C4)[C@@]5(CN)c4ccccc4F)cnc23)cc2cccnc12` [Example 173, ((1S,6R,7R)-7-(2-fluorophenyl)-3-(3-(8-methylquinolin-6-yl)-1H-pyrazolo[3,4-b]pyrazin-6-yl)-3-azabicyclo[4.1.0]heptan-7-yl)methanamine] the same measures were below 500 nM and below 1000 nM.
